In the Biogen ADME set (Fang et al. 2023):
In brackets after ≈: the same amount, converted by molar mass.

Details: for aqueous solubility: pH 6.8

intrinsic clearance, human liver microsomes [mL/min/kg]	intrinsic clearance, rat liver microsomes [mL/min/kg]	MDR1-MDCK efflux ratio	aqueous solubility [µg/mL]	fraction unbound, human plasma	fraction unbound, rat plasma	SMILES
4.92	49.6	–	–	–	–	Cn1c2cc(S(C)=O)sc2c2cnn(Cc3cccc(N)c3)c(=O)c21 (centres undefined)
18	448	0.492	63.8 (≈ 235 µM)	–	–	Cc1noc(C2CCN(CCc3ccccc3)CC2)n1
155	1510	3.73	30.2 (≈ 79.9 µM)	–	–	Cc1ccc(CNC(=O)CN2CCC(n3nnc4cc(C)ccc43)CC2)cc1
≤ 4.74	496	–	–	–	–	Cc1c(C(=O)Nc2cnccn2)cccc1-c1ccccn1
≤ 4.74	363	8.24	–	–	–	COc1cccc(F)c1NC(=O)N1CCC(N2CC=CC2)CC1
≤ 4.74	193	0.771	–	–	–	C[C@@H]1NC(=O)N(CCC2Cc3ccccc3C2)C1=O
–	–	–	34.3 (≈ 171 µM)	–	–	CC(C)(C)OC(=O)N1CCNC(=O)C1
19.4	231	–	–	–	–	Cc1cccc(NC(=O)C(=O)c2c(C)nn(C)c2C)n1
5.12	50.8	0.564	–	–	–	Cc1c(C(=O)Nc2ccc(CO)cc2)nnn1Cc1ccc(Cl)c(Cl)c1
–	–	–	1.92 (≈ 5.43 µM)	–	–	Cn1cc(-c2nc(C(=O)Nc3cccnc3-n3cncn3)cs2)cn1
55	591	1.5	47.3 (≈ 136 µM)	–	–	COC(=O)c1c(C)[nH]c(C(=O)N(C)Cc2ccc(OC)c(F)c2)c1C
226	2310	–	–	–	–	CCCCNc1nc2c(cc1C#N)CCC2
≤ 4.74	–	8.23	–	0.535	–	CCc1c[nH]c2ncnc(N3CCC(CN4CCN(C)CC4)CC3)c12
300	782	0.367	–	–	–	Cc1nsc(Nc2ccccc2)c1C#N
–	–	–	87.3 (≈ 284 µM)	–	–	CNCC(=O)Nc1cc(Cl)c(OCCOC)c(Cl)c1
57.4	940	–	3.01 (≈ 8.42 µM)	–	–	COc1cc(-c2ccc(C)s2)cc2c1OCCN(c1noc(C)n1)C2
≤ 4.74	19.3	1.28	40.9 (≈ 156 µM)	–	–	Cc1ncccc1CNc1nnc(C(C)(C)C)s1
65.1	1250	0.688	20.9 (≈ 71.5 µM)	–	–	CCc1nc(CN2C(=O)COc3ccc(F)cc32)cs1
153	1270	1.29	13.1 (≈ 32.6 µM)	–	–	c1ccc(OCc2cc(CC3(NCc4cnc5ccccc5c4)COC3)no2)cc1
28.1	209	7.53	–	–	–	CCc1c(O)cc(O)c(C(=O)c2ccc(OCCN3CCOCC3)c(OC)c2)c1CC(=O)N(CCOC)CCOC
≤ 4.74	14.9	51.2	16.9 (≈ 36.7 µM)	–	–	CCS(=O)(=O)Nc1ccc(Oc2ccc(F)cc2F)c(-c2cn(C)c(=O)c3[nH]ccc23)c1
14.7	66.5	129	–	–	–	COC(=O)N[C@H](C)CNc1nccc(-c2cn(C(C)C)nc2-c2cc(Cl)cc(NS(C)(=O)=O)c2F)n1
14.6	397	1.3	50.1 (≈ 187 µM)	–	–	Cc1nnc(-c2ccccc2-c2ccc(O)cc2)s1
73.6	139	0.676	40.9 (≈ 172 µM)	–	–	CCc1cc2c(N(C)CCO)ncnc2s1
≤ 4.74	≤ 10.7	34.7	–	–	–	O=C(Nc1ccn(CC(F)F)n1)NC1CCN(C2CCCC2)CC1
63.7	4650	1.94	42.9 (≈ 120 µM)	–	–	Cc1nc2ncccn2c1C(=O)N(CC#Cc1ccccc1)C1CCCC1
≤ 4.74	77.8	–	–	–	–	CCOc1cc(N2CCc3nc[nH]c3C2)ncn1
161	1900	2.99	2.71 (≈ 7.14 µM)	–	–	O=C(NC1CCCCCC1)c1ccc(CSc2nc3ccccc3[nH]2)cc1

intrinsic clearance, human liver microsomes [mL/min/kg]	intrinsic clearance, rat liver microsomes [mL/min/kg]	MDR1-MDCK efflux ratio	aqueous solubility [µg/mL]	fraction unbound, human plasma	fraction unbound, rat plasma	SMILES
35.9	1430	19.2	–	–	–	CCc1cc(CNC(=O)Nc2ccc(N3CCSCC3)cc2)on1
≤ 4.74	62.9	3.8	–	–	–	Cc1ccc(NC(=O)CN2C(=O)CN(C)C2=O)cc1C
39.8	2290	2.46	53.3 (≈ 165 µM)	–	–	Cc1noc(C)c1CS(=O)(=O)Cc1cccc2c1OCCO2
63.8	1090	0.979	74.3 (≈ 220 µM)	–	–	COc1ccc(CCNCc2ccc(-c3ccccc3)o2)cc1OC
133	857	1.57	51.4 (≈ 149 µM)	–	–	CCS(=O)(=O)N1CCC(C(=O)N(C)C2CCCCCCC2)CC1
23.7	862	1.15	–	–	–	O=C1NC2(CCCCC2)C(=O)N1Cc1csc(-c2ccccc2)n1
8.76	109	1.91	25.8 (≈ 74.8 µM)	–	–	O=C(Nc1ccc(N2CCOCC2)nc1)N1CCc2sccc2C1
86.6	1080	1.73	65.8 (≈ 171 µM)	–	–	O=C(CN1CCCC(c2cncc(-c3cccc(Cl)c3)n2)C1)N1CCCC1 (centres undefined)
92.1	445	83.8	–	–	–	Cc1nn(C(C)C)c(C)c1S(=O)(=O)NCC1CCN(C(=O)C2CC2)CC1
28.5	88.6	0.532	34.8 (≈ 130 µM)	–	–	COc1ccc2nc(NCc3cnn(C)c3)ccc2c1
64	≤ 10.7	19.3	40.4 (≈ 122 µM)	–	–	CN(Cc1cnn(C)c1)C(=O)c1ccccc1-c1ccccc1C#N
16.7	62.9	–	–	–	–	Nc1nn(C(=O)Cc2ccc(F)cc2)c2cccc(F)c12
15.5	114	2.09	34.5 (≈ 98.9 µM)	–	–	OCc1ccc(Cn2cc(-c3cc(F)ccc3-n3cccn3)nn2)cc1
13.2	477	1.44	6.78 (≈ 23 µM)	–	–	O=C(Nc1nccs1)c1c2c(nc3ccccc13)CCC2
≤ 4.74	≤ 10.7	99	18.5 (≈ 54.8 µM)	–	–	Clc1ccc(C2(c3ccc(-c4cn[nH]c4)cc3)CCNCC2)cc1
13.2	169	2.95	31.7 (≈ 101 µM)	–	–	Cc1ccnc(-n2nccc2NC(=O)N2CCCN(C)CC2)c1
9.11	245	5.65	53.5 (≈ 148 µM)	–	–	O=C(NCCN1CCC(O)(c2cccc(F)c2)CC1)c1cccc(F)c1
33.4	141	1.02	–	0.0522	0.00672	Cc1oc2ccccc2c1CNc1nnc(-c2ccncc2)o1
17.7	–	1.14	–	0.959	–	NC[C@H]1CC[C@@H](C(=O)Nc2ccc3[nH]ncc3c2)O1
173	916	–	11.3 (≈ 45.8 µM)	–	–	Cc1csc(NC(=O)c2cccc(C)c2C)n1
≤ 4.74	≤ 10.7	82.6	–	–	–	CCN(Cc1nc(C)no1)C(=O)c1cc(C)c(C)n(C)c1=O
89.6	1030	–	–	–	–	CC(C)(C)c1cc(NS(=O)(=O)c2c(Cl)cccc2Cl)cc(C(C)(C)C)c1
≤ 4.74	–	2.29	–	1	–	O=C(NC12CCCC1NCC2)c1ccc(-c2cn[nH]c2)cc1 (centres undefined)
22	401	0.964	38.2 (≈ 115 µM)	–	–	Cc1nccc(-c2cccc(NCC(=O)N(C)c3ccccc3)c2)n1
≤ 4.74	14.2	14.6	67.3 (≈ 157 µM)	–	–	Cc1nn(-c2ccc(F)cc2)c(Cl)c1C(=O)N1CCC(S(=O)(=O)C(C)C)CC1
45.9	281	0.724	–	–	–	O=c1c2cnccc2ncn1Cc1ccc2c(c1)CCCO2
643	4390	–	45 (≈ 112 µM)	–	–	O=C(C1CC1)N1CCCC(C(=O)N2CCc3ccccc3C2Cc2ccccc2)C1 (centres undefined)

SMILES	intrinsic clearance, human liver microsomes [mL/min/kg]	intrinsic clearance, rat liver microsomes [mL/min/kg]	MDR1-MDCK efflux ratio	aqueous solubility [µg/mL]	fraction unbound, human plasma	fraction unbound, rat plasma
CCCc1cc(CNC(=O)N2C[C@H]3C[C@@H](C2)c2cccc(=O)n2C3)on1	16.6	90.4	16.4	–	–	–
N=C(N)N/N=C/c1c(Cl)cccc1Cl	≤ 4.74	77	0.543	50.3 (≈ 218 µM)	–	–
Clc1ccc(COc2cccc(N3CCNCC3)c2)cc1	5.23	320	–	23.2 (≈ 76.6 µM)	–	–
